According to patent US20100291086A1, “USE OF ESTROGEN AND ANDROGEN BINDING PROTEINS IN METHODS AND COMPOSITIONS FOR TREATING GYNAECOLOGICAL CANCERS” (priority 2007, published 2010):

Key:
[1] = women, same study; cited from earlier work
invasive breast cancer = details: women; cited from earlier work
LNCaP cells = experiment: In vitro growth proliferation study, calcein uptake assay; assay type: cell-based, human; details: nilutamide 0.1 μM, 120 hours
Procedure: The effects of the polypeptide on the growth and proliferation of the cells was then assessed. […] In addition, LNCaP cells were also cultured in the presence of the non-steroidal antiandrogen nilutamide The human prostate cancer cell line, LNCaP was obtained from American Type Tissue Collection (ATCC) and was routinely cultured in growth medium containing phenol red RPMI 1640 (Invitrogen, Auckland, New Zealand) supplemented with 10% fetal bovine serum (FBS, GIBCO) and 1% antibiotic/antimycotic mixture (Invitrogen, Auckland, New Zealand). Cells were maintained at 37° C. in 5% CO2. […] In addition as control, 6 wells were treated with the nonsteroidal antiandrogen nilutamide (0.1 μM) as well as 6 wells with 10% charcoal stripped serum, to simulate steroid free conditions. After 120 hours in culture, cells were washed once with PBS and labelled with calcein ([…], Molecular Probes, Oregon, USA) at 1 mM final concentration in PBS. Calcein positive cells were detected using a FLUOstar OPTIMA plate reader (BMG Labtech, Victoria, Australia). Experiments were performed in 6 replicates for each treatment condition. Data are presented as mean±SEM unless otherwise indicated.

breast cancer = details: adjuvant tamoxifen for about 5 years, women with cancers expressing the estrogen receptor; cited from earlier work

O=C(c1ccc(OCCN2CCCCC2)cc1)c1c(-c2ccc(O)cc2)sc2cc(O)ccc12 [Raloxifene]
increase of risk of fatal stroke [1]: 49% | reduction of risk of invasive breast cancer (invasive breast cancer): 44%

CC1(C)NC(=O)N(c2ccc([N+](=O)[O-])c(C(F)(F)F)c2)C1=O [nilutamide]
reduction of prostate cancer cell proliferation (LNCaP cells): 80%

CC/C(=C(\c1ccccc1)c1ccc(OCCN(C)C)cc1)c1ccccc1 [tamoxifen]
reduction of annual breast cancer death rate (breast cancer): 31%
